Test results: US20090312408A1, “ISOFLAVAN AND ISOFLAVENE COMPOUNDS AND THEIR USE AS ANGIOGENESIS INHIBITORS” (priority 2006, published 2009)

Key:
BBCE cells = assay: bFGF-induced endothelial cell proliferation, analysis by cell counting; format: cell-based; details: 120 h, 2.5 ng/ml bFGF, cell counting on day 5 or 6, read-out: half-maximal concentration, inhibition of bFGF-induced proliferation of endothelial cells
Description: BBCE cells were seeded (day 0) in 12-well tissue culture plates at a density of 1250 cells/cm^2 (5000 cells/ml/well) and the following day (day 1), wells received 5 μl of the compound dilutions to be tested and 2.5 ng/ml bFGF. This treatment was repeated after two days (day 3). On day 5 or 6, cells in duplicate wells were trypsinized and counted using a Coulter particle counter. Ten dilutions were tested for each compound.
One of the main angiogenic endothelial cell responses is proliferation, in which the effect of F47 was examined. The effect of F47 on bFGF-induced endothelial cell proliferation was studied using cell counting, the results being shown in FIG. 1. […] F47 inhibited both bFGF- and VEGF-induced proliferation of endothelial cells with half-maximal concentrations of 3 and <1 μM, respectively.

HUVEC = assay: VEGF-induced endothelial cell proliferation, analysis by Ki67 immunostaining; format: cell-based; details: Homo sapiens, HUVECs, VEGF 50 ng/ml, 6 hr, read-out: half-maximal concentration, inhibition of VEGF-induced proliferation of endothelial cells
Description: (§1) Human endothelial cells from umbilical vein (HUVEC) were plated on dishes pre-coated with rat collagen type I (Becton Dickinson Biosciences) and cultured in M199 medium supplemented with 20% fetal calf serum, FCS, 50 ng/ml endothelial cell growth supplement (ECGS, Sigma), heparin […] (Sigma) and 1% penicillin-streptomycin. All media and sera for cell culture were purchased from Invitrogen and were endotoxin-free. F47 was tested for endotoxin content using the QCL1000 kit from BioWhittaker, Inc. Stock solutions of F47 were resuspended in DMSO/ethanol, 1/1 by volume, and added directly to the culture medium. Cells not receiving F47 were incubated in the corresponding volume of DMSO/ethanol.
HUVECs (3×10^4) were grown on cover slips and serum starved in a medium containing 5% FCS for 12 hr. Cells were induced with VEGF (50 ng/ml) in the presence or absence of F47 (10 μM) for 6 hr, fixed in 3.7% paraformaldehyde and processed for indirect immunofluorescence using an anti-Ki67 antibody. Cells were counterstained with Hoechst 33342. […] Ki67 antigen is only expressed in active phases of the cell cycle, but not in G0 phase and the percentage of the Ki67-positive cells represents the proliferating population.
One of the main angiogenic endothelial cell responses is proliferation, in which the effect of F47 was examined. […]

A-431 tumors = assay: A-431 murine tumor xenograft model; format: in vivo, BALB/c nude mice
Description: To assess the in vivo antiangiogenic/antitumor activity of F47, female immunodeficient mice (5-8 week-old BALB/c nude mice, Charles River, Milan, Italy) were s.c. inoculated in the right flank with 10^7 A-431 cells in a volume of 50 μl (Morbidelli et al., Clinic Cancer Res, 2003; 9(14): 5358-69). After 9 days, when tumors reached a volume of 170 mm^3, animals were randomly assigned to 2 different experimental protocols (9-10 mice per group). Peritumor treatment with F47 (5 μg/day/mice) or vehicle started. The local peritumor treatment was performed at the dose of 5 μg/50 μl/mouse/day. The vehicle containing the same concentrations of solvents (1% ethanol+1% DMSO) was used as control. Daily treatment was performed for 10 consecutive days. Serial caliper measurements of perpendicular diameters were used to calculate tumor volume using the following formula: (shortest diameter×longest diameter×thickness of the tumor in mm). Data are reported as tumor volume in mm^3. Experiments have been performed in accordance with the guidelines of the European Economic Community for animal care and welfare (EEC Law No. 86/609) and National Ethical Committee. Animals were observed daily for signs of cytotoxicity and were sacrified by CO2 asphyxiation.
At day 10 animals were sacrificed and each tumor was immediately frozen in liquid nitrogen. Seven-μm-thick cryostat sections were stained with hematoxylin and eosin and adjacent sections were used for immunohistochemical staining with the anti-ED-B monoclonal antibody after fixation in absolute cold acetone.
FIG. 5 refers to the antitumor activity of F47 evaluated in nude mice inoculated with A-431 cells and treated after the onset of tumor growth (day 9 from inoculation, >150 mm^3 tumor volume). Peri-tumor treatment with F47 (5 μg/mice/day) or vehicle continued for 10 days. Data are reported as tumor volume in mm^3 (means±SEM of […]).

HUVECs = assay: Endothelial cell survival/apoptosis, FACS analysis (sub-G1 DNA content); format: cell-based, Human; details: serum-starved HUVECs (5% FCS), F47 10 μM, 15 hr
Description: as §1
For analysis by flow cytometry, HUVECs were serum starved for 15 hr in medium containing 5% FCS and treated with VEGF (50 ng/ml) in the presence or absence of F47 (10 μM for the same period of time). At the end of the incubation time, floating and adherent cells were collected in ice-cold PBS, stained with propidium iodine using the CycleTEST PLUS DNA Reagent kit (Becton Dickinson Biosciences) and processed for flow cytometric analysis using a Becton Dickinson Fluorescence Activated Cell Scanner (FACS). The percentage of cells with a sub-G1 DNA content was considered as the cell population that had undergone apoptosis. […]

[1] = tested on: Bovine Microvascular Endothelial (BME) cells; assay: In vitro angiogenesis assay (tube formation in 3D collagen gel); format: cell-based; details: 50 μM, pictures after 7 days
Description: Collagen was solubilized from rat tail tendons essentially as described by Strom and Michalopoulos, Methods Enzymol 82: 544-555, 1982 and Dharmsathaphorn and Madara, Methods Enzymol. 192: 354-389, 1990. In order to prepare collagen gel, 8 volumes of a cold collagen solution from rat tail tendons (approximately 1.5 mg/ml) were quickly mixed with 1 volume of 10× minimal essential medium (MEM) without bicarbonate and 1 volume of sodium bicarbonate (11.76 mg/ml) on ice. F47 or DMSO was added at final concentration of 50 μM and the mixture was quickly dispensed into 2.00 cm^2-tissue culture wells and it was polymerized at 37° C. for 10 min (Montesano et al., J. Cell Biol. 97: 1648-1652, 1983). Bovine Microvascular Endothelial (BME) cells were seeded onto collagen gel in 500 μl of D-MEM supplemented with 10% Donkey Calf Serum (DCS), 1% glutamine and 1% penicillin-streptomycin, containing F47 (50 μM) or DMSO (control sample). The cells were left at 37° C. for 90-120 min to be attached. Following that, the medium was removed and a second layer of 200 μl of collagen mixture, containing F47 (50 μM) or DMSO, was added on the top. Again, collagen was allowed to polymerize at 37° C. for 10 min. Finally, 500 μl of medium, containing either F47 (50 μM) or DMSO, was added on the top. The ultimate layer of the medium was changed every 2 days renewing thus F47 or DMSO. Pictures were taken after 7 days. […]

For `COc1cc2c(cc1O)OCC(c1ccc(O)cc1)C2` (centres unmarked) [F47, 7,4′-dihydroxy-6-methoxy-isoflavan], the IC50 (BBCE cells) was 3000 nM, the IC50 (HUVEC) was under 1000 nM and the survival of mice (A-431 tumors; day 8, peritumor 5 μg/day/mice) was 78%. For the same compound, the “presence of tumor vasculature (anti-ED-B antibody staining of B-fibronectin)” value (A-431 tumors; day 10, peritumor 5 μg/day, tumor sections) was “absent”, the “tumors smaller than in control mice (tumor volume)” value (A-431 tumors; peritumor 5 μg/day/mice, P<0.01 vs vehicle group at day 6 and 8, 4 animals/group) was “approximately 50%” and the “effect on VEGF-induced endothelial cell survival” value (HUVECs; VEGF 50 ng/ml) was “did not inhibit”. For the same compound, the “level of apoptosis of serum-deprived HUVECs (toxic or apoptotic effects of the compound itself)” value (HUVECs; no VEGF) was “did not further increase” and the “in vitro angiogenesis (tube formation) in 3D collagen cultures” value [1] was “strongly inhibited”.
